From US4201786A, “Water soluble pesticidal quaternary ammonium salt compounds” (Union Carbide Corporation, priority 1977, dated 1980)

Experiments:
[1] = Water solubility (Table I); assay type: physicochemical; settings: 25° C.
[2] = test system: bean aphid (Aphis fabae Scop.); experiment: Bean aphid foliage spray test; assay type: in vivo; parameters: key: A: Excellent control; B: Partial control; C: No control; settings: 500 ppm, 24 hour
Procedure: (§1) Suspensions of the test compounds were prepared by dissolving one gram of compound in 50 milliliters of acetone in which had been dissolved 0.1 gram (10 percent of the weight of compound) of an alkylphenoxy polyethoxyethanol surfactant, as an emulsifying or dispersing agent. The resulting solution was mixed into 150 milliliters of water to give roughly 200 milliliters of a suspension containing the compound in finely divided form. The thus-prepared stock suspension contained 0.5 percent by weight of test compound. The test concentrations in parts per million by weight employed in the tests described hereinbelow were obtained by appropriate dilutions of the stock suspension with water. The test procedures were as follows:
Adults and nymphal stages of the bean aphid (Aphis fabae Scop.) reared on potted dwarf nasturtium plants at 65°-70° F. and 50-70 percent relative humidity, constituted the test insects. For testing purposes, the number of aphids per pot was standardized to 100-150 by trimming plants containing excess aphids.
The test compounds were formulated by diluting the stock suspension with water to give a suspension containing 500 parts of test compound per million parts of final formulation.
The potted plants (one pot per compound tested) infested with 100-150 aphids, were placed on a revolving turntable and sprayed with 100-110 milliliters of test compound formulation by use of a DeVilbiss spray gun set at 40 psig. air pressure. This application, which lasted 25 seconds, was sufficient to wet the plants to run-off. As a control, 100-110 milliliters of a water-acetone-emulsifier solution containing no test compound were also sprayed on infested plants. After spraying, the pots were placed on their sides on a sheet of white standard mimeograph paper which had been previously ruled to facilitate counting. Temperature and humidity in the test room during the 24 hour holding period were 65°-70° F. and 50-70 percent, respectively. Aphids which fell onto the paper and were unable to remain standing after being uprighted were considered dead. Aphids remaining on the plants were observed closely for movement and those which were unable to move the length of the body upon stimulator by prodding were considered dead. Percent mortality was recorded for various concentration levels.
(§2) In these test the pesticidal activity of the compounds against aphid, mite, Southern Armyworm, Mexican Bean Beetle, and house fly was rated as follows: […]

[3] = test system: two-spotted mite (Tetranychus urticae Koch); experiment: Mite foliage spray test; assay type: in vivo; parameters: key: A: Excellent control; B: Partial control; C: No control; settings: 500 ppm, six days
Procedure: as §1
Adults and nymphal stages of the two-spotted mite (Tetranychus urticae Koch), reared on Tendergreen bean plants at 80±5 percent relative humidity, were the test organisms. Infested leaves from a stock culture were placed on the primary leaves of two bean plants six to eight inches in height, growing in a two- and-a-half inch clay pot. 150-200 mites, a sufficient number for testing, transferred from the excised leaves to the fresh plants in a period of twenty-four hours. Following the twenty-four hour transfer period, the excised leaves were removed from the infested plants. The test compounds were formulated by diluting the stock suspension with water to give a suspension with water to give a suspension containing 500 parts of test compound per million parts of final formulation. The potted plants (one pot per compound) were placed on a revolving turntable and sprayed with 100-110 milliliters of test compound formulation by use of a DeVilbiss spray gun set at 40 psig. air pressure. This application, which lasted for 25 seconds was sufficient to wet the plants to run-off. As a control, 100-110 milliliters of a water solution containing acetone and emulsifier in the same concentrations as the test compound formulation, but containing no test compound, were also sprayed on infested plants. The sprayed plants were held at 80±5 percent relative humidity for six days, after which a mortality count of motile forms was made. Microscopic examination for motile forms was made on the leaves of the test plants. Any individual which was capable of locomotion upon prodding, was considered living.
as §2

[4] = test system: southern armyworm (Prodenia Eridania, (Cram.)); experiment: Southern armyworm leaf spray test; assay type: in vivo; parameters: key: A: Excellent control; B: Partial control; C: No control; settings: 500 ppm, three days
Procedure: as §1
Larvae of the southern armyworm (Prodenia Eridania, (Cram.), reared on Tendergreen bean plants at a temperature of 80°±5° F. and relative humidity of 50±5 percent, constituted the test insects.
The test compounds were formulated by diluting the stock suspension with water to give a suspension containing 500 parts of test compound per million parts of final formulation. Potted Tendergreen bean plants of standard height and age were placed on a revolving turntable and sprayed with 100-110 milliliters of test compound formulation by use of a DeVilbiss spray gun set at 10 psig. air pressure.
This application which lasted 25 seconds was sufficient to wet plants to run-off. As a control, 100-110 milliliters of a water-acetone-emulsifier solution containing no test compound were also sprayed on infested plants. When dry, the paired leaves were separated and each one was placed in a 9 centimeter Petri dish lined with moistened filter paper. Five randomly selected larvae were introduced into each dish and the dishes were closed. The closed dishes were labeled and held at 80°-85° F. for three days. Although the larvae could easily consume the whole leaf within twenty-four hours, no more food was added. Larvae which were unable to move the length of the body, even upon stimulation by prodding, were considered dead. Percent mortality was recorded for various concentration levels.
as §2

[5] = test system: Mexican bean beetle (Epilachna varivestis, Muls.); experiment: Mexican bean beetle leaf spray test; assay type: in vivo; parameters: key: A: Excellent control; B: Partial control; C: No control; settings: 500 ppm, three days
Procedure: as §1
Fourth instar larvae of the Mexican bean beetle (Epilachna varivestis, Muls.) reared on Tendergreen bean plants at a temperature of 80°±5° and 50±5 percent relative humidity, were the test insects.
The test compounds were formulated by diluting the stock suspension with water to give a suspension containing 500 parts of test compound per million parts of final formulation. Potted Tendergreen bean plants of standard height and age were placed on a revolving turntable and sprayed with 100-110 milliliters of test compound formulation by use of a DeVilbiss spray gun set at 10 psig air pressure. This application, which lasted 25 seconds was sufficient to wet plants to run-off. As a control, 100-110 milliliters of a water-acetone-emulsifier solution containing no test compound were also sprayed on infested plants. When dry, the paired leaves were separated and each was placed in a 9 centimeter Petri dish lined with moistened filter paper. Five randomly selected larvae were introduced into each dish, and the dishes were closed. The closed dishes were labeled and held at a temperature of 80°±5° F. for three days. Although the larvae could easily consume the leaf within 24 to 48 hours, no more food was added. Larvae which were unable to move the length of the body, even upon stimulation, were considered dead.
as §2

[6] = test system: house flies (Musca domestica, L.); experiment: Fly bait test; assay type: in vivo; parameters: key: A: Excellent control; B: Partial control; C: No control; settings: 500 ppm, bait in 10 percent sugar solution, twenty four hours
Procedure: as §1
Four to six day old adult house flies (Musca domestica, L.) reared according to the specifications of the Chemical Specialties Manufacturing Association (Blue Book, McNair-Dorland Co., NY., 1954; pages 243-244, 261) under controlled conditions of 80°±5° F. and 50±5 percent relative humidity, were the test insects. The flies were immobilized by anesthetizing with carbon dioxide and twenty five immobilized individuals, males and females, were transferred to a cage consisting of a standard food strainer about five inches in diameter which was inverted over a wrapping-paper-covered surface. The test compounds were formulated by diluting the stock suspension with a 10 percent (by weight) sugar solution to give a suspension containing 500 parts of test compound per million parts of final formulation, by weight. Ten milliliters of the test formulation were added to a souffle cup containing a one inch square of an absorbent cotton pad. This bait cup was introduced and centered on the blotting paper under the food strainer prior to admitting the anesthetized flies. The caged flies were allowed to feed on the bait for twenty four hours, at a temperature of 80°±5° F. and the relative humidity of 50±5 percent.
as §2

Bean = experiment: Phytotoxicity test, bean; assay type: in vivo; parameters: key: 1: no perceptible injury; 2: intermediate degrees of injury based upon the number and extent to which leaves were injured; 3: intermediate degrees of injury based upon the number and extent to which leaves were injured; 4: intermediate degrees of injury based upon the number and extent to which leaves were injured; 5: the plant was dead; settings: 2500 ppm spray, after ten days
Procedure: as §1
(§3) Experiments were also conducted to determine the phytotoxicity of representative compositions with respect to healthy fresh plants. Solutions of the compounds were prepared as described above to provide a concentration of 2500 parts per million of the test compound. The test plants were sprayed in accordance with the procedure described above for the Mite Foliage Spray Test so as to deliver approximately 100 milliliters of test solution to the leaves of each plant tested. The sprayed plants and controls were set aside for approximately one hour to allow the solutions to dry and were then placed in the greenhouse. After ten days the plants were visually inspected to determine the extent of foliage injury. A rating of 1 indicates no perceptible injury; 5 indicates the plant was dead and ratings of 2, 3 and 4 indicate intermediate degrees of injury based upon the number and extent to which leaves were injured.

Corn = experiment: Phytotoxicity test, corn; assay type: in vivo; parameters: key: 1: no perceptible injury; 2: intermediate degrees of injury based upon the number and extent to which leaves were injured; 3: intermediate degrees of injury based upon the number and extent to which leaves were injured; 4: intermediate degrees of injury based upon the number and extent to which leaves were injured; 5: the plant was dead; settings: 2500 ppm spray, after ten days
Procedure: as §1, §3

Tomato = experiment: Phytotoxicity test, tomato; assay type: in vivo; parameters: key: 1: no perceptible injury; 2: intermediate degrees of injury based upon the number and extent to which leaves were injured; 3: intermediate degrees of injury based upon the number and extent to which leaves were injured; 4: intermediate degrees of injury based upon the number and extent to which leaves were injured; 5: the plant was dead; settings: 2500 ppm spray, after ten days
Procedure: as §1, §3

Cotton = experiment: Phytotoxicity test, cotton; assay type: in vivo; parameters: key: 1: no perceptible injury; 2: intermediate degrees of injury based upon the number and extent to which leaves were injured; 3: intermediate degrees of injury based upon the number and extent to which leaves were injured; 4: intermediate degrees of injury based upon the number and extent to which leaves were injured; 5: the plant was dead; settings: 2500 ppm spray, after ten days
Procedure: as §1, §3

Soybean = experiment: Phytotoxicity test, soybean; assay type: in vivo; parameters: key: 1: no perceptible injury; 2: intermediate degrees of injury based upon the number and extent to which leaves were injured; 3: intermediate degrees of injury based upon the number and extent to which leaves were injured; 4: intermediate degrees of injury based upon the number and extent to which leaves were injured; 5: the plant was dead; settings: 2500 ppm spray, after ten days
Procedure: as §1, §3

| Compound | solubility [1] | Pesticidal activity, Aphid [2] | Pesticidal activity, Mite [3] | Pesticidal activity, Southern Armyworm [4] | Pesticidal activity, Mexican Bean Beetle [5] | Pesticidal activity, Fly [6] | POST-Emergent Herbicidal (phytotoxicity rating), Bean (Bean) | POST-Emergent Herbicidal (phytotoxicity rating), Corn (Corn) | POST-Emergent Herbicidal (phytotoxicity rating), Tomato (Tomato) | POST-Emergent Herbicidal (phytotoxicity rating), Cotton (Cotton) | POST-Emergent Herbicidal (phytotoxicity rating), Soybean (Soybean) |
| --- | --- | --- | --- | --- | --- | --- | --- | --- | --- | --- | --- |
| CCCCCCCCCCCC[N+](C)(C)CC(=O)N(C)C(=O)Oc1cccc2c1OC(C)(C)C2 | > 250 mg/mL | A | A | A | A | A | 2 | 2 | 2 | 2 | 2 |
| CCCCCCCCCCCCCCCCCC[N+](C)(C)CC(=O)N(C)C(=O)Oc1cccc2c1OC(C)(C)C2 | > 250 mg/mL | B | C | A | A | A | 2 | 2 | 1 | 2 | 2 |
| CN(C(=O)C[n+]1ccc(N(C)C)cc1)C(=O)Oc1cccc2c1OC(C)(C)C2 | 160 mg/mL | A | A | A | A | A | 2 | 1 | 1 | 1 | 2 |
| CN(C(=O)C[N+]1(C)CCOCC1)C(=O)Oc1cccc2c1OC(C)(C)C2 | 140 mg/mL | A | B | A | A | A |  |  |  |  |  |
| CN(C(=O)C[n+]1ccn(C)c1)C(=O)Oc1cccc2c1OC(C)(C)C2 | 370 mg/mL | A | A | A | A | A | 2 | 1 | 1 | 1 | 2 |
| CN(C(=O)C[N+]1(C)CCCC1)C(=O)Oc1cccc2c1OC(C)(C)C2 | 490 mg/mL | A | A | A | A | A | 2 | 1 | 1 | 2 | 2 |
| CN(C(=O)C[N+](C)(C)C)C(=O)Oc1cccc2c1OC(C)(C)C2 | 570 mg/mL | A | C | A | A | A | 1 | 1 | 2 | 2 | 2 |
